Data from patent US10047093B2, “Substituted imidazo[1,2-B]pyridazines as protein kinase inhibitors” (Tolero Pharmaceuticals, Inc., priority 2011, dated 2018).
pEC50, pIC50: −log10 of the molar value.

Legend:
Pim-1 kinase = Pim-1 kinase (Homo sapiens (Human), UniProt P11309); assay: Pim-1 kinase inhibition assay (Promega Kinase-Glo); format: biochemical; conditions: read-out: IC50 on Pim1
Source text: One illustrative manner in which Pim-1 kinase activity can be determined is by quantifying the amount of ATP remaining in solution after an in vitro Pim-1 kinase reaction. The Kinase-Glo Assay Kit (Promega, Inc., Madison, Wis.) allows this. The amount of ATP remaining in the solution after the kinase reaction serves as a substrate for the luciferase to catalyze luciferin to oxyluciferin plus one photon of light. Thus, the luminescent signal read by the Luminoskan Ascent Instrument (Thermo Electron Corp., Milford, Mass.) correlates with the amount of ATP present after the kinase reaction and inversely correlates with the amount of kinase activity. […] These assays are set up in duplicate 50 ul volumes in white, flat bottom 96 well plates. […] This solution is incubated at 30 degrees Celsius at 360 rpm for two hours. Following the incubation, 50 ul of Kinase-Glo reagent is added to each well, including all positive and negative control wells, and incubated at room temperature for 15 minutes. […] The IC50 values can then be calculated for each inhibitor tested.

UM-UC-3 xenograft tumors = assay: UM-UC-3 established mouse xenograft; format: in vivo
Source text: (§1) Male and female Nu/Nu mice were purchased from Harlan Sprague Dawley (Indianapolis, Ind.). Female Nu/Nu mice were used for all xenograft evaluations with the exception of the PC-3 xenografts where male Nu/Nu mice were used. Cell lines were expanded in vitro in complete media, and if adherent were harvested by trypsin-EDTA, centrifuged and resuspended in PBS 1:1 with Matrigel (BD Bioscienes). Cells were inoculated subcutaneously in the right hind flank of mice. […] Tumor volumes and body weights were determined twice a week, and tumor weights were measured at the completion of the translational xenograft studies.

PC-3 xenograft tumors = assay: PC-3 established mouse xenograft; format: in vivo
Source text: as §1

UM-UC-3 = assay: In vitro viability/proliferation assay, UM-UC-3; format: cell-based; conditions: Homo sapiens, UMUC3; bladder line UM-UC-3
Description: (§2) Adherent or suspension cancer cell lines were seeded at 2000-5000 cells/well in a 96-well plate, or 1000-2000 cells/well in a 384-well plate. Suspension cells were treated with drug the same day as seeding, while adherent cells were incubated overnight at 37° C. in 5% CO2 prior to drug treatment. All cells were treated for 72 hours, then lysed with ATPlite (Perkin Elmer) and measured on an Envision microplate reader. IC50 values were determined using GraphPad Prism software.
(§3) Over 35 cell lines were tested, and the most sensitive cell lines from various indications were selected and verified by multiple EC50 determinations (FIG. 6). […] Anti-proliferative activity using PIM-2 shRNA against FLT3-ITD driven leukemia lines has been observed (Adam (2006) Cancer Res 66:3828-35 data not shown).

[1] = test system: ML-2 cells (wild-type FLT3); assay: ML-2 mouse xenograft; format: in vivo; conditions: ML-2 (wild-type FLT3) xenograft
Source text: (§4) Male and female Nu/Nu mice were purchased from Harlan Sprague Dawley (Indianapolis, Ind.). Female Nu/Nu mice were used for all xenograft evaluations with the exception of the PC-3 xenografts where male Nu/Nu mice were used. Cell lines were expanded in vitro in complete media, and if adherent were harvested by trypsin-EDTA, centrifuged and resuspended in PBS 1:1 with Matrigel (BD Bioscienes). Cells were inoculated subcutaneously in the right hind flank of mice. When tumors reached 100-200 mm^3 by caliper measurement, mice were randomized and dosing of SGI-9481 or vehicle control began and continued every day for 5 days (QDx5) with 2 days off for 18-21 days. Tumor volumes and body weights were determined twice a week, and tumor weights were measured at the completion of the translational xenograft studies.

hematological cell lines = assay: In vitro viability assay, panel of hematological cell lines; format: cell-based; conditions: most sensitive hematological cell lines
Description: as §2, §3

MV-4-11 (FLT3-ITD) = assay: MV-4-11 mouse xenograft; format: in vivo; conditions: MV-4-11 (FLT3-ITD) established xenografts
Source text: as §4

[2] = 125 mg/kg, less than with 200 mg/kg

Chain of Pim-1 kinase (P11309 whole entry): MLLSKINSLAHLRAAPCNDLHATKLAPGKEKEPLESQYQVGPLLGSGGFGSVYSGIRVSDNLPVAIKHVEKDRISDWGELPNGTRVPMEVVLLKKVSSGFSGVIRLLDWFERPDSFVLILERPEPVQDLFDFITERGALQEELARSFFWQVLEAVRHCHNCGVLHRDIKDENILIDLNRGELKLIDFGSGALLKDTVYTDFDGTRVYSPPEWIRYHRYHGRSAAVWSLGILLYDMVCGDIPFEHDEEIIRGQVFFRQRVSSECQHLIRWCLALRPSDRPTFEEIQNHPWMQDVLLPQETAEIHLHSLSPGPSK

Row | Compound | pIC50 (Pim-1 kinase) | tumor growth inhibition (UM-UC-3 xenograft tumors; [2]) | body weight and gross adverse toxicity (UM-UC-3 xenograft tumors; oral dosing of 200 mg/kg) | tumor growth measured by volume (caliper) and by final tumor weight (UM-UC-3 xenograft tumors; oral dosing of 200 mg/kg) | tumor growth inhibition (PC-3 xenograft tumors; [2]) | body weight and gross adverse toxicity (PC-3 xenograft tumors; oral dosing of 200 mg/kg) | tumor growth measured by volume (caliper) and by final tumor weight (PC-3 xenograft tumors; oral dosing of 200 mg/kg) | pEC50 (UM-UC-3) | tumor growth [1] | pEC50 (hematological cell lines) | tumor growth of established xenografts (MV-4-11 (FLT3-ITD))
1 | C[C@]1(O)CC[C@H](Nc2ccc3nnc(-c4cccc(OC(F)(F)F)c4)n3c2)CC1 [Compound 8-100, 1-Methyl-4-((3-(3-(trifluoromethoxy)phenyl)-[1,2,4]triazolo[4,3-a]pyridin-6-yl)amino)-trans-cyclohexanol] | 5.78 | – | – | – | – | – | – | – | – | – | –
2 | 4-(((3-(3-(Trifluoromethyl)phenyl)-[1,2,4]triazolo[4,3-a]pyridin-6-yl)amino)methyl)tetrahydro-2H-thiopyran 1,1-dioxide [Compound 8-111] | < 4.52 | – | – | – | – | – | – | – | – | – | –
3 | CC(C)(O)[C@H]1CC[C@H](Nc2ccc3ncc(-c4cccc(C(F)(F)F)c4)n3n2)CC1 [Compound 8-31] | – | significant tumor growth inhibition | no significant changes in body weight or gross adverse toxicity | significantly reduced | significant tumor growth inhibition | no significant changes in body weight or gross adverse toxicity | significantly reduced | 5.70 to 6.00 | significant tumor growth inhibition | 5.70 to 6.00 | induced regressions
